Entries after “also recorded” stand apart in the source; their conditions may differ. Where two headings read alike, the source gives them in different places.
Columns and labels:
in vivo = conditions: mouse, po
[1] = p.o., combined with emorfazone 240 mg/kg
[2] = Anti-inflammatory Test by Whittle's Method (acetic acid, dye in peritoneal exudate); assay type: in vivo, Male ddY mice
Description: Male ddY mice (18-22 g) fasted for 18 hours were divided into test groups and a control group of 7 or 8 animals each. […] Ten minutes later, 10 ml/kg of 0.7% acetic acid dissolved in physiological saline was injected intraperitoneally into all animals and 20 minutes thereafter the animals were sacrificed. The amount of the dye in the peritoneal exudate was determined at 590 nm by using a spectrophotometer (Hitachi Instrument Co.). The ED30 was defined as the dose which decreased the amount of dye of the control group by 30%, and was determined graphically.

[3] = Analgesic Test by Randall-Selitto Method (carrageenin inflammatory pain); assay type: in vivo, Male Wistar rats; conditions: for ED50: Rattus norvegicus, po, read-out: ED50 (dose that increased the mean pain threshold of the control group by 50%), drug alone; for ED50 dose obtained experimentally, with emorfazone 4.5 / theoretical additive ED50 dose, with emorfazone 4.5 / ED50 dose obtained experimentally, with emorfazone 9 / theoretical additive ED50 dose, with emorfazone 9: p.o.; for ED50 dose obtained experimentally, with emorfazone 4.5 / theoretical additive ED50 dose, with emorfazone 4.5: combined with emorfazone 4.5 mg/kg; for ED50 dose obtained experimentally, with emorfazone 9 / theoretical additive ED50 dose, with emorfazone 9: combined with emorfazone 9 mg/kg
Description: Male Wistar rats (120-140 g) fasted for 18 hours were divided into test groups and a control group of 5 animals per group. […] The pain threshold was measured after the carrageenin injection at hourly intervals for 3 hours with an analgesy meter (Ugo Basile, Milan).

[4] = in words; for inhibitory effect in combination with emorfazone: combination with 100 mg/kg of emorfazone
Description: Female Sprague-Dawley rats (180-220 g) were used. […] On day 0 of the test, the adjuvant containing 0.6 mg of Mycobacterium butylicum (Difco) in 0.1 ml of liquid paraffin was injected into the plantar surface of the right hind paw. The test drugs were administered orally once a day for 15 days. The severity of inflammation of the 4 paws and the tail of each rat was evaluated visually at day 30 and scored by a point system. The grading for each lesion was on a 0 to 3 scale with 0 indicating absence of inflammation and 3 indicating maximum inflammation.

[5] = Analgesic Test by Phenylquinone Writhing Method; assay type: in vivo, Male ddY mice; conditions: for ED50: Mus musculus, po, read-out: ED50 (dose that reduced the number of writhes of the control group by 50%), drug alone; for combined analgesic effect with emorfazone: combination with emorfazone, in words; for ED50 dose obtained experimentally, with emorfazone 10 / theoretical additive ED50 dose, with emorfazone 10 / ED50 dose obtained experimentally, with emorfazone 20 / theoretical additive ED50 dose, with emorfazone 20: p.o.; for ED50 dose obtained experimentally, with emorfazone 10: combined with emorfazone 10 mg/kg (1/4 of its ED50); for theoretical additive ED50 dose, with emorfazone 10: combined with emorfazone 10 mg/kg; for ED50 dose obtained experimentally, with emorfazone 20: combined with emorfazone 20 mg/kg (1/2 of its ED50); for theoretical additive ED50 dose, with emorfazone 20: combined with emorfazone 20 mg/kg
Description: Male ddY mice (18-22 g) fasted for 18 hours were divided into test groups and a control group of 7 animals per group. […] The number of writhes was counted for 20 minutes after the p-phenylquinone injection.

[6] = test system: biosynthesis of prostaglandin; test: inhibition of the biosynthesis of prostaglandin; assay type: biochemical; conditions: in words
[7] = LD50 dose obtained experimentally, with emorfazone 240, p.o., combined with emorfazone 240 mg/kg
[8] = Mus musculus, po; read-out: ED30 (dose which decreased the amount of dye of the control group by 30%), drug alone
[9] = p.o.; combined with emorfazone 28.8 mg/kg
[10] = p.o.; combined with emorfazone 28.8 mg/kg; theoretical additive dose
[11] = p.o.; combined with emorfazone 86 mg/kg
[12] = p.o.; combined with emorfazone 86 mg/kg; theoretical additive dose

Compound | LD50 at 168 h (in vivo) [mg/kg] | LD50 at 168 h (in vivo; [7]) [mg/kg] | theoretical additive LD50 dose, with emorfazone 240 [1] [mg/kg] | ED30 [2, 8] [mg/kg] | ED30 dose obtained experimentally, with emorfazone 28.8 [2, 9] [mg/kg] | theoretical additive ED30 dose, with emorfazone 28.8 [2, 10] [mg/kg] | ED30 dose obtained experimentally, with emorfazone 86 [2, 11] [mg/kg] | theoretical additive ED30 dose, with emorfazone 86 [2, 12] [mg/kg] | ED50 [3] [mg/kg] | ED50 dose obtained experimentally, with emorfazone 4.5 [3] [mg/kg] | theoretical additive ED50 dose, with emorfazone 4.5 [3] [mg/kg] | ED50 dose obtained experimentally, with emorfazone 9 [3] [mg/kg] | theoretical additive ED50 dose, with emorfazone 9 [3] [mg/kg] | inhibitory effect in combination with emorfazone [4] | ED50 [5] [mg/kg] | combined analgesic effect with emorfazone [5] | ED50 dose obtained experimentally, with emorfazone 10 [5] [mg/kg] | theoretical additive ED50 dose, with emorfazone 10 [5] [mg/kg] | ED50 dose obtained experimentally, with emorfazone 20 [5] [mg/kg] | theoretical additive ED50 dose, with emorfazone 20 [5] [mg/kg] | further results
CC(=O)Oc1ccccc1C(=O)O [Acetylsalicylic acid, acetylsalicylic acid] | 1260 | 1000 | 945 | 225 | 160 | 168.8 | 110 | 112.5 | 340 | 240 | 255 | 70 | 170 | not essentially affected | 155 | for the most part a synergistic response | 115 | 116.3 | 40 | 77.5 | 
CCOc1c(N2CCOCC2)cnn(C)c1=O [Emorfazone, 4-ethoxy-2-methyl-5-morpholino-3(2H)-pyridazinone] |  |  |  | 115 |  |  |  |  | 18 |  |  |  |  |  | 40 |  |  |  |  |  | inhibition of the biosynthesis of prostaglandin (emorfazone) [6]: does not inhibit the biosynthesis of prostaglandin; inhibitory effect of emorfazone alone ([4]; 100 mg/kg, used alone): did not show any significant effect when used alone
CC(C(=O)O)c1ccc(-c2ccccc2)c(F)c1 (stereo not shown) [Flurbiprofen] | 210 | 155 | 157.5 |  | 2.8 | 3.0 | 1.9 | 2 | 22 | 15 | 16.5 |  | 11 | significantly potentiated | 2 | for the most part a synergistic response | 6.2 | 8 | 0.8 | 1 | ED30 ([2]; Mus musculus, po, read-out: ED30 (dose which decreased the amount of dye of the control group by 30%), drug alone): 4 mg/kg
COc1ccc2c(c1)c(CC(=O)O)c(C)n2C(=O)c1ccc(Cl)cc1 [Indomethacin] | 11.3 | 13 | 8.5 | 2.2 | 1.6 | 1.65 | 1 | 1.1 | 6.8 | 0.8 | 5.1 | 0.3 | 3.4 | significantly potentiated | 0.52 | for the most part a synergistic response | 0.33 | 0.39 | 0.18 | 0.26 | 
Cc1cccc(Nc2ccccc2C(=O)O)c1C [Mefenamic acid] |  |  | 892.5 | 82 | 60 | 61.5 | 41 | 41 | 120 | 58 | 90 | 20 | 60 | significantly potentiated | 36 | for the most part a synergistic response | 21 | 27 | 13 | 18 | 
CCCCC1C(=O)N(c2ccccc2)N(c2ccccc2)C1=O [Phenylbutazone] |  |  | 427.5 | 175 | 130 | 131.3 | 86 | 87.5 | 125 | 22 | 93.8 | 19 | 62.5 | not essentially affected | 66 | potentiated by the emorfazone; also recorded: for the most part a synergistic response | 32 | 49.5 | 16 | 33 | 

Source: patent publication US4379148A, “Analgesic and anti-inflammatory composition” (priority 1981, dated 1983)
